These results are taken from US5399587A, “Biologically active compounds” (priority 1993, dated 1995).

Each structure is given as a SMILES string. “And” between values parts separate entries of the source, which are not always exact repeats. Identical values can stand only once.

Data set [1] addresses T1, bovine aortic sarcolemma membrane vesicles ([^125 I]ChTX binding) (Bos taurus, UniProt Q28204).
T1 construct: bovine aortic sarcolemma membrane vesicles; from tissue; host or cells: bovine aorta (smooth muscle) sarcolemma membrane vesicles
Nature of the data set: [^125 I]ChTX (Charybdotoxin) binding to bovine aortic sarcolemma membrane vesicles. The protocol: The interaction of [^125 I]ChTX (Charybdotoxin) with bovine aortic sarcolemma membrane vesicles was determined under conditions as described in Vazquez et al., 1989, J. Biol. Chem. 264, 20902-20909. Briefly, sarcolemma membrane vesicles were incubated in 12×75 polystyrene robes with ca. 25 pM [^125 I]ChTX (2200 Ci/mmol), in the absence or presence of test compound, in a media consisting of 20 mM NaCl, 20 mM Tris-HCl pH 7.4, 0.1% bovine serum albumin, 0.1% digitonin. Nonspecific binding was determined in the presence of 10 nM ChTX. Incubations were carried out at room temperature until ligand binding equilibrium is achieved at ca. 90 min. At the end of the incubation period, samples were diluted with 4 mL ice-cold 100 mM NaCl, 20 mM Hepes-Tris pH 7.4 and filtered through GF/C glass fiber filters that have been presoaked in 0.5% polyethylenimine. Filters were rinsed twice with 4 mL ice-cold quench solution. Radioactivity associated with filters was determined in a gamma counter. Specific binding data in the presence of each compound (difference between total binding and nonspecific binding) was assessed relative to an untreated control.

The subject of a further data set is maxi-K channels. The data set can be described thus: Maxi-K channel recordings in planar lipid bilayers with plasma membrane vesicles from bovine aortic smooth muscle. Particulars: 10 μM, lipid bilayer. Type of data set: biochemical. The protocol:
Planar lipid bilayers were formed from a solution of 1-palmitoyl-2-oleoylphosphatidylethanolamine (POPE) and 1-palmitoyloleoylphosphatidylcholine (POPC) in a 7/3 molar ratio dissolved in decane (50 mg/mL). This lipid solution was painted across a small hole (250 micron) separating two aqueous compartments and readily formed bilayers with capacitances of 200-250 pF. The solution on the side that the membranes were added (cis) contained (mM): 150 KCl, 10 Hepes, 0.01 Ca, 3.7 KOH, pH 7.20. The solution on the other side (trans) contained (mM): 25 KCl, 10 HEPES, 0.01 Ca, 3.7 KOH, pH 7.20. Plasma membrane vesicles purified from bovine aortic smooth muscle (Slaughter et al. 1989, Biochemistry 28, 3995-4002) were added to the cis side until channel incorporation occurred. After channel incorporation, the concentration of KCl on the trans side was increased to 150 mM to prevent further channel incorporation. The orientation of maxi-K channels after insertion into the bilayer was determined from the calcium and voltage sensitivity of the channel. […]
Data was stored on a RACAL STORE 4DS FM tape recorder (Racal Recorders, Vienna, Va.) or on digital video tape using a video casette recorder after digitizing the signal with VR-10 (Instrutech Corp., Belmont N.Y.) PCM video encoder. The signal was also recorded on chart paper with a GOULD 2400S chart recorder (Gould Inc., Cleveland Ohio). […]

Data set [2] deals with large-conductance calcium-activated potassium (maxi-K) channels (Bos taurus, UniProt Q28204). Nature of the data set: Patch clamp recordings of maxi-K channel currents in excised inside-out membrane patches from cultured bovine aortic smooth muscle cells. Type of data set: biochemical. The conditions noted are these: 10 μM. The procedure: Pipettes were typically filled with solutions containing (mM): 150 KCl, 10 Hepes (4-(2-hydroxyethyl)-1-piperazineethanesulfonic acid), 1 Mg, 0.01 Ca, and adjusted to pH 7.20 with 3.7 mM KOH. After forming a high resistance (>10^9 ohms) seal between the sarcolemmal membrane and the pipette, the pipette was withdrawn from the cell forming an excised inside-out membrane patch. […] An Axopatch 1C amplifier (Axon Instruments, Foster City, Calif.) with a CV-4 headstage was used to control the voltage and to measure the currents flowing across the membrane patch. The input to the headstage was connected to the pipette solution with a Ag/AgCl wire, and the amplifier ground was connected to the bath solution with a Ag/AgCl wire covered with a robe filled with agar dissolved in 0.2M KCl. Maxi-K channels were identified by their large single channel conductance (~250 pS) and sensitivity of channel open probability to membrane potential and intracellular calcium concentration.
Chain of large-conductance calcium-activated potassium (maxi-K) channels (Q28204 whole entry): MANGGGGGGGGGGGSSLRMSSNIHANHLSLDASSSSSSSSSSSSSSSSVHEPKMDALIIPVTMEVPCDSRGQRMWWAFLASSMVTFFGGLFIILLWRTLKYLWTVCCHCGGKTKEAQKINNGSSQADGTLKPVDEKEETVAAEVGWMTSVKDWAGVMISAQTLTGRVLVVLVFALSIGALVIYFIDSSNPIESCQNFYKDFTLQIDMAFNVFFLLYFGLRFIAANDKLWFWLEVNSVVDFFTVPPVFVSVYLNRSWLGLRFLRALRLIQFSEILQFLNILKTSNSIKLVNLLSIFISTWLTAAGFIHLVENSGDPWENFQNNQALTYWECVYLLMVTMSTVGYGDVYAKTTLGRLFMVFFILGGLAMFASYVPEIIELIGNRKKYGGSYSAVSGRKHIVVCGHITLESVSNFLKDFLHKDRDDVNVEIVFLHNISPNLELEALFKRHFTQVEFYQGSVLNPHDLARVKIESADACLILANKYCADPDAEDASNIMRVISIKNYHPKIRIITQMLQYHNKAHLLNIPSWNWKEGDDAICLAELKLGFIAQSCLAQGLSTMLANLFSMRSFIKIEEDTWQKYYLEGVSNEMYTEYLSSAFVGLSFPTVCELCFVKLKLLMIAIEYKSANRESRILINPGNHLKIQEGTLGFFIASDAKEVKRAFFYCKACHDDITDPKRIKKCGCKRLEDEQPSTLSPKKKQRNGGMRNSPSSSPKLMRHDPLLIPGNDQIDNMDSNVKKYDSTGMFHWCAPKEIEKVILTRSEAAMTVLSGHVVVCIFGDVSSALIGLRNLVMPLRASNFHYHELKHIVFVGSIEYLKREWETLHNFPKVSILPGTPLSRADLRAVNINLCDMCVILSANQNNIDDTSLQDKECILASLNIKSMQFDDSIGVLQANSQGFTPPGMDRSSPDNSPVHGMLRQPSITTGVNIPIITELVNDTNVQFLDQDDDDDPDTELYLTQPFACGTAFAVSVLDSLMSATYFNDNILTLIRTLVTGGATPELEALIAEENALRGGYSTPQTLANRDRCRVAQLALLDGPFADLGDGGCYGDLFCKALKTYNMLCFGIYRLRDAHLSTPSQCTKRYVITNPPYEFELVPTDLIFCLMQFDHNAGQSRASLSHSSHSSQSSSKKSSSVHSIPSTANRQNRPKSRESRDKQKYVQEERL
Chain of large-conductance calcium-activated potassium (maxi-K) channels (Q28067 whole entry partner): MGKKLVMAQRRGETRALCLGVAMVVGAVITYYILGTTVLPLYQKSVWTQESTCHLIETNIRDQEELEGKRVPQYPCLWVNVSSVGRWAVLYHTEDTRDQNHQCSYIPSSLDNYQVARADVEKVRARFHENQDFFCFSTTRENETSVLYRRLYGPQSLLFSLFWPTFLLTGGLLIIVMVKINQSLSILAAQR
Data was stored on a RACAL STORE 4DS FM tape recorder (Racal Recorders, Vienna, Va.) or on digital video tape using a video casette recorder after digitizing the signal with VR-10 (Instrutech Corp., Belmont N.Y.) PCM video encoder. The signal was also recorded on chart paper with a GOULD 2400S chart recorder (Gould Inc., Cleveland Ohio). For quantitative analysis, the data was played into a DEC 11-73 (Digital Equipment Corp., Maynard, Mass.) after digitization with a DT2782-8D1A analogue to digital converter (Data Translation Inc., Marlboro, Mass.), or played into a MAC IIx or QUADRA 700 computer (Apple Computers) after digitization with an ITC-16 interface (Instrutech Corp., Belmont, N.Y.).
(In general: The patch-clamp technique gives a direct electrical read-out from membranes.)

[3] abbreviates: excised inside-out patch, result in words.
The mark [4] stands for this setting: application to the intracellular side, excised inside-out patch.

T1 sequence (Q28204 whole entry): as the sequence (Q28204 whole entry) above

As usually defined, the IC50 is the point on the concentration scale where inhibition reaches its midpoint. Higher therefore signals lower potency. For `CCCCCCCC/C=C\CCCCCCCC(=O)OCC1=CC[C@@]2(C)C[C@H](O)[C@@](O)(C(C)C)[C@@H]2CC1` [Compound A], the half-inhibitory concentration (IC50) in data set [1] is 360 nM and ~360 nM. For the same compound, the “inhibition of [^125 I]ChTX binding” value in data set [1] (result in words) is recorded as “concentration-dependent inhibition”. The “increase in channel open probability” value with maxi-K channels (inside face of the channel) is recorded as 1.4 fold. The “effect on channel open probability” value is given as “did not increase channel open probability” in the data set on maxi-K channels (outside face of the channel) and “clear increases in channel open probability” in data set [2] (setting [3]). Also, the “time over which increase in channel open probability developed” value in data set [2] (excised inside-out patch) lay in the range of 5 to 10 min. Further, the “reversal of increase in channel open probability on washout” value in data set [2] (long (20-60 minutes) washout) is on record as “slowly reversed after long (20-60 minutes) washout”.
For `CC(C)[C@@]1(O)[C@@H]2CCC(CO)=CC[C@@]2(C)C[C@@H]1O` [Compound E], the “effect on toxin binding” value in data set [1] (concentrations from 1 nM to 100 μM) was “did not produce any significant effect on toxin binding”. In addition, the “effect on channel open probability” value in data set [2] (setting [4]) is listed as “no observable effect on channel open probability”.
Take `CCCCCCCC/C=C\CCCCCCCC(=O)O[C@H]1C[C@]2(C)CC=C(C)CC[C@H]2[C@]1(O)C(C)C` [Compound D]: the remaining activity at 100 µM in data set [1] (1.5 h, pH 7.4, read-out: [^125 I]ChTX binding, % of that under control conditions) is 37%. Moreover, the “inhibition of [^125 I]ChTX binding” value in data set [1] (at 100 μM, tested at 1, 10 and 100 μM) is reported as “significant inhibition of binding”. Moreover, the “effect on channel open probability” value in data set [2] (setting [4]) is listed as “small decreases in channel open probability”.
In data set [1], `CC1=CC[C@@]2(C)C[C@H](O)[C@@](O)(C(C)C)[C@@H]2CC1` [Compound B, reference compound] yielded an IC50 of 200 nM. Besides, the “inhibition of [^125 I]ChTX binding” value in data set [1] (result in words) is “concentration-dependent inhibition”. Also, the “effect on channel open probability” value in data set [2] (setting [3]) is recorded as “no clear effect on channel open probability”.
With `CCCCC/C=C\C/C=C\CCCCCCCC(=O)O[C@H]1C[C@]2(C)CC=C(C)CC[C@H]2[C@]1(O)C(C)C` [Compound C], the “effect on [^125 I]ChTX binding” value in data set [1] (concentrations up to 100 μM, tested at 1, 10 and 100 μM) is given as “no effect on binding”. Moreover, the “effect on channel open probability” value in data set [2] (setting [4]) is “small decreases in channel open probability”.
